Measurements published in ChEMBL document CHEMBL1201862, “PubChem BioAssay data set” (2004).
Several values for one entry are separate records, joined by “and”; a condition that tells them apart may be missing. Equal entries are not always repeated. Activity calls are given as the source filed them.

How the values were obtained:
[1] = molecular target: Cytochrome P450 2D6 (Homo sapiens, UniProt P10635);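 note: CYP2D6 member of a cytochrome P450 panel assay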
[2] = NIH-3T3 fibroblast cytotoxicity, dose response, cytotoxicity control, cell-based, fluorescence, Alamar Blue, secondary assay (AID 2327); format: functional;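 note: NIH-3T3 mouse fibroblasts cultured with fluconazole at 8 µg/mL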
[3] = fluconazole-exposed Candida albicans growth modulators – fluorescence, retest, confirmation (AID 2467); format: functional, cell-based
[4] = molecular target: T1, Cytochrome P450 1A2 (Homo sapiens, UniProt P05177);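 note: PubChem cytochrome P450 panel assay, CYP1A2 panel member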
T1 sequence (P05177 whole entry): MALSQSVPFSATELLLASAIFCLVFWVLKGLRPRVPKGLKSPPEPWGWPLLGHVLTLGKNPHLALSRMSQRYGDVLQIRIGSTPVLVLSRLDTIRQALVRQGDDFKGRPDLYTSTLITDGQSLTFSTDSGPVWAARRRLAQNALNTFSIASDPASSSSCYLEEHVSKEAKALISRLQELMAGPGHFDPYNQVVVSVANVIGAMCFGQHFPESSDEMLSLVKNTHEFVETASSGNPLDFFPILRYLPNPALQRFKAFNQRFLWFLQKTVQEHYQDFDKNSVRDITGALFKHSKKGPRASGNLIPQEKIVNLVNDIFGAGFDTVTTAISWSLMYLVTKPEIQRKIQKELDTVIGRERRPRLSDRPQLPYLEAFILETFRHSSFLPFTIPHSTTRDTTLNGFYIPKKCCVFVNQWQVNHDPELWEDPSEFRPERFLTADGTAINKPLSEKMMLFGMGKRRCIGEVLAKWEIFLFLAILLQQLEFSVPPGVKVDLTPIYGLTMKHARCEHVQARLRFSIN

[5] = molecular target: Cytochrome P450 2C19 (Homo sapiens, UniProt P33261); test: Cytochrome panel assay with activity outcomes. Panel member name: p450-cyp2c19 Compounds with AC50 equal or less than 10 uM are considered active; format: functional
[6] = molecular target: Cytochrome P450 3A4 (Homo sapiens, UniProt P08684);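 note: CYP3A4 tested as one member of a cytochrome P450 panel screen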
[7] = Trypanosoma cruzi growth suppression in host cells – NIH3T3 host cells, beta-gal luminescence, confirmation (AID 2044); format: functional, cell-based;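 note: intracellular parasites grown in NIH/3T3 mouse fibroblasts as host cells; luminescent beta-galactosidase reporter signal from transgenic T. cruzi replicating inside host cells; inhibitors lower the luminescence signal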
[8] = NIH3T3 cell viability loss – ATP luminescence, mouse fibroblasts, counter-screen, dose response (AID 2010); format: functional, cell-based; conditions: NIH3T3;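 note: cells exposed to compound for about 90 hours before reading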
[9] = tested on: INS1; test: INS-1E survival protection against cytokine death – cell-based, luminescence, retest, dose response (AID 449756); format: functional; conditions: Rattus norvegicus;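 note: cell death triggered by IL-1 beta plus TNF-alpha plus IFN-gamma mixture; protective hits raise ATP signal compared with cytokine alone wells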
[10] = luciferase reporter signal suppression in cells – H4 neuroglioma cells, luminescence, dose response (AID 1990); format: functional, cell-based
[11] = Luminescence Cell-Based Dose Response HTS to Identify Inhibitors of 5'UTR Stem-Loop Driven Prion Protein mRNA Translation in H4 Neuroglioblastoma Cells. [Related pubchem assays: 1827 (Project Summary), 1813 (Primary HTS)]; format: functional
[12] = alpha-synuclein stem-loop luciferase translation blockers – H4 neuroglioma cells, luminescence, confirmation (AID 1988); format: functional, cell-based
[13] = cells; format: functional
[14] = Luminescence Cell-Based Dose Response HTS to Identify Activators of Luciferase Translation or Activity in H4 […] Cells. [Related pubchem assays: 1829 (Project Summary), 1814 (Primary HTS)]; format: functional
[15] = tested on: Streptococcus sp. 'group A'; test: Streptococcus pyogenes SK(-)GAS viability under kanamycin – luminescence, BacTiterGlo, confirmation, counter-screen for streptokinase expression inhibitor project, dose response (AID 1900); format: functional, organism-based; conditions: Streptococcus sp. 'group A'
[16] = tested on: H4; test: Luminescence Cell-Based Dose Response HTS to Identify Activators of 5'UTR Stem-Loop Driven Prion Protein mRNA Translation in H4 Neuroglioblastoma Cells. [Related pubchem assays: 1829 (Project Summary), 1814 (Primary HTS)]; format: functional; conditions: Homo sapiens
[17] = molecular target: T2, Streptokinase A (Streptococcus pyogenes serotype M1, UniProt P10520); test: viability-normalized secreted streptokinase activity reduction – plasminogen activation absorbance, OD405, dose response (AID 1914); format: functional, Streptococcus pyogenes M1 GAS;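 note: secreted streptokinase activity via plasminogen activation per viability signal from cell pellet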
T2 sequence (P10520 whole entry): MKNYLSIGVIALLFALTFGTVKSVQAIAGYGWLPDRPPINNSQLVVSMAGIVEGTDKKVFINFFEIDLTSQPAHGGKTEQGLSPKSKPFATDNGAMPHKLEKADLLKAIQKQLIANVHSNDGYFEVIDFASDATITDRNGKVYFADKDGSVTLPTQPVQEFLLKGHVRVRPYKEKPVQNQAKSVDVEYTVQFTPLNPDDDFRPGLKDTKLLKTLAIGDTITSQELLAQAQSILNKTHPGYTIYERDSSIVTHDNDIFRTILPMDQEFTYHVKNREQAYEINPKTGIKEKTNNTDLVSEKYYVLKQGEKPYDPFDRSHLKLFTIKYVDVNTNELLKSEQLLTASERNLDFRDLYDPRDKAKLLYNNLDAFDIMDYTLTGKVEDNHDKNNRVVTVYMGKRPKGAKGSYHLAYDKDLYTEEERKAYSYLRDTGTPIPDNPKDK

[18] = tested on: Streptococcus; test: GAS UMAA2166 growth inhibition – luminescence, BacTiterGlo, counter-screen for streptokinase expression inhibitor project, dose response (AID 1915); format: functional, organism-based; conditions: Streptococcus;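 note: potency for reduction of bacterial viability or growth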

Cytochrome P450 2C19, sequence (P33261 whole entry): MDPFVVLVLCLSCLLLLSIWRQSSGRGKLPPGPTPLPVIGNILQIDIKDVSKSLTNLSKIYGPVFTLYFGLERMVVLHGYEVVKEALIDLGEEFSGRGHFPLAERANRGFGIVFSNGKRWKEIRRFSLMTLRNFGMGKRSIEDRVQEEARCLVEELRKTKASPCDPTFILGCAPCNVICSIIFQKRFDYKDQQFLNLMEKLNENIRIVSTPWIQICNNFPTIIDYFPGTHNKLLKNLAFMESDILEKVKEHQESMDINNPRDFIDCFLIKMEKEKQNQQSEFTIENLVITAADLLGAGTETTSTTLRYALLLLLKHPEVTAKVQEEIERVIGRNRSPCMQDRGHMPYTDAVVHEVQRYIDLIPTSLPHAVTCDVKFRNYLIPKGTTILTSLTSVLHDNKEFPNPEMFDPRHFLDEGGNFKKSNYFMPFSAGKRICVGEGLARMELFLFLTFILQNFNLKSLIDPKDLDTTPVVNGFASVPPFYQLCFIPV
Cytochrome P450 2D6, sequence (P10635 whole entry): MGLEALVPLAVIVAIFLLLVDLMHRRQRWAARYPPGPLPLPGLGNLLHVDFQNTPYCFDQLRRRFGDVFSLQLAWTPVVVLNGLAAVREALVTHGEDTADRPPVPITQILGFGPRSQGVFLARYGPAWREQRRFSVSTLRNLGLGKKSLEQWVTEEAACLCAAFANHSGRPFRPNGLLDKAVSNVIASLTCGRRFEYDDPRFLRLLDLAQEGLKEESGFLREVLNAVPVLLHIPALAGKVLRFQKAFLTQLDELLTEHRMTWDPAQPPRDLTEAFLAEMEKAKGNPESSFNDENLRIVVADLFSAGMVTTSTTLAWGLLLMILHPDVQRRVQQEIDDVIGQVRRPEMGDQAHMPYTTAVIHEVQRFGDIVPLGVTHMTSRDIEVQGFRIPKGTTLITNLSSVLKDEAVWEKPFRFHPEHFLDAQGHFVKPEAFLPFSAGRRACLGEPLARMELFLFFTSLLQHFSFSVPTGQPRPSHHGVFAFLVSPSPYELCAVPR
Cytochrome P450 3A4, sequence (P08684 whole entry): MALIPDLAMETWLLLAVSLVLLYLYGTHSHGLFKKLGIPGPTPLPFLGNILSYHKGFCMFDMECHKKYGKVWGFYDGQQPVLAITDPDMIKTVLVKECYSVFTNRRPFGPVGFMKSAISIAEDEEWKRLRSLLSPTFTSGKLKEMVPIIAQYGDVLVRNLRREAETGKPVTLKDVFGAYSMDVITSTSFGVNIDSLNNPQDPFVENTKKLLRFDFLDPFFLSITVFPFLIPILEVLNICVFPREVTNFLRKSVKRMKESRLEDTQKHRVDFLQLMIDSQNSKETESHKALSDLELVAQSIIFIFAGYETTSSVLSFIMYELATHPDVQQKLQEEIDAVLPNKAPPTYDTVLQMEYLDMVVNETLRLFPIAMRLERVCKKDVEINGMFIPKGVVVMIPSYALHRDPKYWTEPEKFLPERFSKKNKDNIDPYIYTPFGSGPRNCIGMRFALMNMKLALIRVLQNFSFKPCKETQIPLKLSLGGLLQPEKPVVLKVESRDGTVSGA

For `O=C(Cc1ccc(Br)cc1)Nc1ccccc1Sc1ccccc1`, the AC50 [1] was 11.2 µM (inconclusive).

For `CCn1c2ccccc2c2cc(NC(=O)C(C)C)ccc21`, the EC50 [2] was 63.3 µM (active) and the EC50 [3] was > 38 µM (not active).

With `CNc1ncncc1-c1ccc(C(=O)N(C)C)cc1` the AC50 [4] was 15.8 µM (inconclusive).

For `Cc1ccccc1-c1nc(NC2CC2)c2ccccc2n1`, the AC50 [1] was 39.8 µM (inconclusive).

In the case of `CN(C)C(=O)c1ccc(-c2nccc(-n3ccnc3)n2)cc1`, the AC50 ([5]; read-out: AC50) is reported as 39.8 µM (inconclusive), the AC50 [1] is reported as 39.8 µM (inconclusive) and the AC50 [6] is reported as 3.16 µM (inconclusive).

In the case of `Cc1cc(Oc2ccccc2)nc(-c2ccccc2O)n1`, the EC50 [2] is reported as > 150 µM (inconclusive) and the EC50 [3] is reported as > 38 µM (not active).

In the case of `COc1cc2nc3c(c([Si](C)(C)C(C)(C)C)c2cc1OC)Cn1c-3cccc1=O`, the AC50 ([5]; read-out: AC50) is reported as 39.8 µM (inconclusive).

With `CN1/C(=C\P(=O)(N(C)C)N(C)C)C(C)(C)c2ccccc21` the EC50 [7] was 2.96 µM (active), the EC50 [8] was > 60 µM (not active) and the AC50 [9] was 4.32 µM (active).

With `COc1ccc(-n2c(=O)c(-c3cccc(Cl)c3)nc3cncnc32)cc1` the AC50 ([5]; read-out: AC50) was 39.8 µM (inconclusive).

With `CN1CCN(c2ncc3ncc(=O)n(Cc4ccc(F)cc4)c3n2)CC1` the AC50 [4] was 25.1 µM (inconclusive) and the AC50 [6] was 15.8 µM (inconclusive).

For `Nc1ncccc1OCc1cccc(C(F)(F)F)c1`, the EC50 [10] was > 120 µM (not active), the EC50 [11] was > 120 µM (not active) and the EC50 [12] was > 120 µM (not active).

With `Oc1cccc(Nc2ncnc3c2oc2ccccc23)c1` the EC50 [2] was > 160 µM (inactive) and the EC50 [3] was 3.71 µM (active).

With `Cc1cc(C)c(NC(=O)CCN2CCN(Cc3ccccc3)CC2)c(C)c1` the EC50 [10] was > 120 µM (not active), the EC50 [11] was > 120 µM (not active) and the EC50 [12] was > 120 µM (not active).

With `CC1CCCC(NC(=O)c2nnc(O)c3ccccc23)C1C` (centres undefined) the AC50 ([5]; read-out: AC50) was 20 µM (inconclusive).

For `COc1cccc(NC(=S)N(CCc2nc3cc(C)c(C)cc3[nH]2)Cc2cccnc2)c1`, the AC50 [1] was 0.126 µM (inconclusive).

In the case of `Cn1cccc1CNCCc1ccccc1`, the AC50 ([5]; read-out: AC50) is reported as 14.1 µM (inconclusive) and the AC50 [6] is reported as 31.6 µM (inconclusive).

With `O=c1c(-c2ccc(Cl)cc2)nc2cnc(N3CCOCC3)nc2n1C1CC1` the AC50 [4] was 1.26 µM (inconclusive).

In the case of `CCN(CC)c1ccc(/C=N/NC(=O)Cc2cccs2)c(O)c1`, the AC50 [9] is reported as 0.916 µM (active).

In the case of `COc1ccc2oc(=O)c(/C(C)=N/NC(=O)c3ccncc3)cc2c1`, the IC50 [13] is reported as 1.31 µM (active).

For `CCOc1cc(/C=N/NC(=O)c2cccnc2)ccc1OCC(N)=O`, the EC50 [2] was > 150 µM (inactive) and the EC50 [3] was > 38 µM (not active).

In the case of `O=C(N/N=C/c1ccccc1O)NC12CC3CC(CC(C3)C1)C2`, the EC50 [14] is reported as 28.5 µM (active), the EC50 [15] is reported as 22.3 µM (active) and the EC50 [16] is reported as > 120 µM (not active). For the same compound, the EC50 [17] was > 150 µM (not active) and the EC50 [18] was 15.1 µM (active).

In the case of `COc1ccc(/N=C/c2ccc(CNS(=O)(=O)c3ccc(Cl)cc3)o2)cc1`, the AC50 ([5]; read-out: AC50) is reported as 11.2 µM (inconclusive), the AC50 [4] is reported as 25.1 µM (inconclusive) and the AC50 [6] is reported as 31.6 µM (inconclusive).

In the case of `Fc1ccc(N/N=C/c2cccnc2)c(F)c1`, the EC50 [2] is reported as 16.3 µM (inconclusive) and the EC50 [3] is reported as > 38 µM (not active).

With `Cc1c(/C=N/CCOCc2ccccc2)cnn1C` the AC50 ([5]; read-out: AC50) was 22.4 µM (inconclusive) and the AC50 [1] was 25.1 µM (inconclusive).

For `CCNCCCNCCCNCCCNCC` [BIS(ETHYL)NORSPERMINE], the AC50 [5] was “inconclusive”.

In the case of `CC(C)(C(=O)c1cccnc1)c1cccnc1` [METYRAPONE], the AC50 [4] is reported as 12.6 µM (inconclusive).

For `CCN(CC)CCOC(=O)c1ccc(N)cc1` [PROCAINE], the AC50 [1] was 10 µM (inconclusive) and 39.8 µM (inconclusive).
